{"source": "patent US20100048519A1", "about": "“METHODS OF TREATMENT FOR ULCERATIVE COLITIS USING AMINOSALICYLATE” (priority 2006, published 2010)", "assay_type_in_all_cases": "in vivo, human", "key": {"[1]": {"system": "person diagnosed with moderate Ulcerative colitis", "assay": "Single-patient treatment examples (Examples 2-5): person diagnosed with moderate ulcerative colitis", "excerpt": "A 70 kg person diagnosed with moderate Ulcerative colitis is prescribed a pharmaceutical oral composition comprising 1.2 g of olsalazine (mol. wt. 302.24), a mesalamine dimer, two tablets to be taken twice daily for a total of 4.8 g/day of the 5-ASA dimer (5-ASA mol. wt.=153.14). The patient takes two tablets of the pharmaceutical in the morning and two tablets in the evening such that about 4.8 g/day of 5-ASA is delivered. The Physician's Global Assessment (PGA) score improves in comparison to baseline and rectal bleeding reduces. A 72 kg person diagnosed with moderate Ulcerative colitis is prescribed a pharmaceutical composition comprising four 1.2 g mesalamine delayed-release tablets, to be taken once daily. The four tablets are taken in the morning so that 4.8 g/day of 5-ASA is delivered. The Physician's Global Assessment (PGA) score improves in comparison to baseline and rectal bleeding reduces. A 75 kg person diagnosed with moderate Ulcerative colitis is prescribed a pharmaceutical oral composition comprising two 1.2 g balsalazide delayed-release tablets, to be taken three times daily for a total of 7.2 g/day of balsalazide; this regimen is calculated to deliver about 3.1 g of 5-ASA. The Physician's Global Assessment (PGA) score improves in comparison to baseline and rectal bleeding reduces. A 71 kg person diagnosed with moderate Ulcerative colitis is prescribed a pharmaceutical composition comprising a rectal mesalamine foam. The foam is administered three times per day (morning, afternoon, and evening) such that 1 g of mesalamine is administered at each interval for a total of 3 g of mesalamine per day. The Physician's Global Assessment (PGA) score improves in comparison to baseline and rectal bleeding is reduced."}, "[2]": {"system": "male patients with moderate ulcerative colitis", "assay": "Study 2: phase III, multi-center, randomized, double-blind, controlled clinical trial, overall improvement (treatment success) at week 6", "details": "moderate disease", "procedure": "(§1) Administration of mesalamine at 4.8 g/day via three daily doses consisting of two, 800 mg dosage tablets provides a clear efficacy benefit over 2.4 g/day of mesalamine given as three daily doses consisting of two, 400 mg dosage tablets and addresses an unmet medical need for men with moderate ulcerative colitis. […] Data from patients with mild to moderate Ulcerative colitis (UC) are combined and analyzed from two phase III, multi-center, randomized, double-blind, controlled clinical trials of identical design assessing the safety and clinical efficacy of the increased dosage of 5-ASA. The two clinical trials are referred to herein as “Study 1” and “Study 2.” The primary endpoint is the percentage of moderate UC patients achieving overall improvement (i.e., treatment success) from baseline at week 6. This is defined as: (1) complete response (remission); complete resolution of signs and symptoms (stool frequency, rectal bleeding, Patient Functional Assessment (PFA) and sigmoidoscopy score) and a Physician's Global Assessment (PGA) of 0; or (2) partial response; improvement from baseline in the PGA score and improvement in at least one clinical assessment (stool frequency, rectal bleeding, PFA or sigmoidoscopy score) and no worsening in any of the other clinical assessments. […]"}, "[3]": {"system": "male patients with moderate ulcerative colitis", "assay": "Bayesian analysis of success rate in men with moderate disease", "procedure": "In addition, a Bayesian analysis is conducted to calculate the probability that treatment with the 4.8 g/day dose in men results in a higher success rate than treatment with the 2.4 g/day dose. This type of analysis considers data from any previous studies conducted using either of the two dose levels. Success rates from male patients with moderate disease at baseline from three previous mesalamine studies are used to estimate the prior distributions for the 2.4 g/day dose and the 4.8 g/day dose. Using these prior distributions and Bayes analyses, the “posterior distribution” is calculated for each dose level based on the data obtained from […]."}, "[4]": {"system": "male patients with moderate ulcerative colitis", "assay": "Study 1 and Study 2 combined: subgroup analyses and safety", "procedure": "Data from patients with mild to moderate Ulcerative colitis (UC) are combined and analyzed from two phase III, multi-center, randomized, double-blind, controlled clinical trials of identical design assessing the safety and clinical efficacy of the increased dosage of 5-ASA. The two clinical trials are referred to herein as “Study 1” and “Study 2.” Pre-specified subgroup analyses for fifty-four demographic and baseline characteristics are performed in patients with moderately active disease (PGA score=2) to assess consistency of primary endpoint. […] To further evaluate the robustness of the results in men with moderate disease, whisker plots (i.e., point estimate and 95% confidence interval for the difference between the 2.4 g/day group and the 4.8 g/day group) for various subgroups defined on the basis of baseline characteristics (e.g., disease severity, demographic parameters) are prepared. […] FIG. 1 (a) is a subgroup analysis of treatment outcome at week 6 for male patients with moderate disease for Study 1 and Study 2 combined; (b) is a subgroup analysis of treatment outcome at week 6 for female patients with moderate disease for Study 1 and Study 2 combined. FIG. 2 (a) is a subgroup analysis of treatment outcome at week 6 for male patients with moderate disease for Study 1 and Study 2 combined; (b) is a subgroup analysis of treatment outcome at week 6 for female patients with moderate disease for Study 1 and Study 2 combined. FIG. 3 (a) is a subgroup analysis of treatment outcome at week 6 for male patients with moderate disease for Study 1 and Study 2 combined; (b) is a subgroup analysis of treatment outcome at week 6 for female patients with moderate disease for Study 1 and Study 2 combined. […]"}, "[5]": {"system": "male patients with moderate ulcerative colitis", "assay": "Study 1: phase III, multi-center, randomized, double-blind, controlled clinical trial, overall improvement (treatment success) at week 6", "details": "moderate disease", "procedure": "as §1"}, "[6]": {"details": "Example 4, oral, two 1.2 g delayed-release tablets three times daily, 7.2 g/day (about 3.1 g 5-ASA), 75 kg person"}, "[7]": {"details": "Example 3, four 1.2 g delayed-release tablets once daily, 4.8 g/day, 72 kg person"}}, "data": [{"smiles": "O=C(O)c1cc(N=Nc2ccc(O)c(C(=O)O)c2)ccc1O", "note": "[olsalazine, 3,3′-dicarboxy-4,4′-dihydroxyazobenzene]", "values": [{"measurement": "Physician's Global Assessment (PGA) score in comparison to baseline", "setting": "[1]; Example 2, oral, two 1.2 g tablets twice daily, 4.8 g/day, 70 kg person", "result": "improves"}]}, {"smiles": "O=C(O)CCNC(=O)c1ccc(/N=N/c2ccc(O)c(C(=O)O)c2)cc1", "note": "[balsalazide, (E)-5-[[4-[[(2-carboxyethyl)amino]carbonyl]phenyl]azo]-2-hydroxybenzoic acid]", "values": [{"measurement": "Physician's Global Assessment (PGA) score in comparison to baseline", "setting": "[1]; [6]", "result": "improves"}, {"measurement": "Rectal bleeding", "setting": "[1]; [6]", "result": "reduces"}]}, {"smiles": "Nc1ccc(O)c(C(=O)O)c1", "note": "[mesalamine, 5-amino-2-hydroxybenzoic acid]", "values": [{"measurement": "Difference in Proportions (4.8 g/day vs 2.4 g/day)", "setting": "[2]; Primary Analysis", "result": 27.5, "unit": "%"}, {"measurement": "Difference in Proportions (4.8 g/day vs 2.4 g/day)", "setting": "[2]; Set-to-Failure analysis", "result": 24.8, "unit": "%"}, {"measurement": "Probability of a successful treatment outcome (Bayes analysis)", "setting": "[3]; 2.4 g/day dose, 95% credible interval 35.7%, 58.9%", "result": 47.2, "unit": "%"}, {"measurement": "Probability of a successful treatment outcome (Bayes analysis)", "setting": "[3]; 4.8 g/day dose, 95% credible interval 64.9%, 83.5%", "result": 74.7, "unit": "%"}, {"measurement": "Probability that 4.8 g/day dose results in a higher success rate than 2.4 g/day dose", "setting": "[3]; Bayes analysis", "result": 99.97, "unit": "%"}, {"measurement": "Safety profile of 4.8 g/day regimen versus 2.4 g/day regimen", "setting": "[4]; 4.8 g/day (800 mg tablet) vs 2.4 g/day (400 mg tablet), oral delayed-release", "result": "comparable"}, {"measurement": "Difference between 4.8 g/day group and 2.4 g/day group across pre-specified subgroups", "setting": "[4]; males with moderate disease, combined population, 51 of 54 subgroups", "result": "consistently superior to the 2.4 g/day group"}, {"measurement": "Observed differences in success rate between treatment groups (4.8 vs 2.4 g/day)", "setting": "[4]; men with moderate disease, both studies", "result": "approximately 25%"}, {"measurement": "Difference in Proportions (4.8 g/day vs 2.4 g/day)", "setting": "[5]; Primary Analysis", "result": 25.5, "unit": "%"}, {"measurement": "Difference in Proportions (4.8 g/day vs 2.4 g/day)", "setting": "[5]; Set-to-Failure analysis", "result": 27.3, "unit": "%"}, {"measurement": "Physician's Global Assessment (PGA) score in comparison to baseline", "setting": "[1]; [7]", "result": "improves"}, {"measurement": "Rectal bleeding", "setting": "[1]; [7]", "result": "reduces"}]}]}
